Assay results published in patent US11213029B2 (priority 2017, dated 2022).
“Also recorded” adds a separate entry of the source. Like-named read-outs stand apart in the source and are kept apart here.

Experiments:
Format in all cases: cell-based
[1] = system: Xanthomonas oryzae pv. oryzae (Xoo); conditions: 8 mm paper disc, 30° C., 24 hours; for degree of inhibition against the growth of Xoo: 10 mM or 20 mM, dark condition, FIGS. 2 and 3; for degree of inhibition against the growth of Xoo (inhibition radius): 10 mM, FIG. 1
Magnaporthe oryzae = conditions: 500 mM (40 μl) on disc, 1.5 cm apart, 28° C., 96 hours; FIG. 7
[2] = system: Xanthomonas oryzae pv. oryzae (Xoo); conditions: biplate, paper disc on opposite side, 10 mM, 30° C., dark condition, 24 hours; FIG. 4
Xanthomonas oryzae = conditions: by volatility, same manner as Example 3 (10 mM); FIG. 5

Compound	degree of inhibition against the growth of Xoo [1]	growth inhibition of Magnaporthe oryzae (Magnaporthe oryzae)	degree of inhibition against the growth of Xoo by volatility [2]	degree of inhibition against the growth of Xoo (inhibition radius) [1]	inhibitory effect against the growth of Xanthomonas oryzae compared to Xanthomonas fragariae and Xanthomonas axonopodis (Xanthomonas oryzae)	degree of inhibition against the growth of Xoo ([1]; listed as (S)-(+)-carvone)	degree of inhibition against the growth of Xoo ([1]; listed as (R)-(−)-carvone)
Cc1ccc(C(C)C)cc1O [carvacrol]	effect of directly inhibiting the growth	effect of inhibiting the growth	–	–	–	–	–
C=C(C)C1CCC2(C)OC2C1 (single isomer, unassigned; (-)) [(−)-limonene oxide]	effect of directly inhibiting the growth	effect of inhibiting the growth	did not show a strong inhibitory effect against the growth but showed a larger area for the inhibitory effect compared to those of carveol and carvone	–	–	–	–
(+)-limonene oxide	effect of directly inhibiting the growth	effect of inhibiting the growth	–	–	–	–	–
C=C(C)C1CC=C(C)[C@@H](O)C1 (stereo partly drawn) [L-carveol]	effect of directly inhibiting the growth; also recorded: particularly strong inhibitory effect	effect of inhibiting the growth	strong inhibitory effect	larger inhibition radius than that of limonene	more specifically significant inhibitory effect against the growth of Xanthomonas oryzae	–	–
C=C(C)[C@H]1CC=C(C)C(=O)C1 [S-(+)-carvone]	effect of directly inhibiting the growth	effect of inhibiting the growth	strong inhibitory effect	larger inhibition radius than that of limonene	more specifically significant inhibitory effect against the growth of Xanthomonas oryzae	particularly strong inhibitory effect	–
CC1=CCC(C(C)(C)O)CC1 (stereo not drawn) [α-terpineol]	effect of directly inhibiting the growth	effect of inhibiting the growth	–	–	–	–	–
R-(−)-carvone	effect of directly inhibiting the growth	effect of inhibiting the growth	strong inhibitory effect	–	–	–	particularly strong inhibitory effect
(S)-(−)-perillyl alcohol	effect of directly inhibiting the growth	effect of inhibiting the growth	–	–	–	–	–
C=C(C)[C@H]1CC=C(C)CC1 [(R)-(+)-limonene, R-(+)-limonene, reference compound]	–	–	no significant effect	–	–	–	–
(+)-isopulegol	effect of directly inhibiting the growth	effect of inhibiting the growth	–	–	–	–	–
C=C(C)[C@@H]1CC=C(C)CC1 [(S)-(−)-limonene, S-(−)-limonene, reference compound]	–	inhibited the growth	no significant effect	inhibitory effect	more specifically significant inhibitory effect against the growth of Xanthomonas oryzae	–	–
(−)-isopulegol	effect of directly inhibiting the growth	effect of inhibiting the growth	–	–	–	–	–
